Where two headings read alike, the source gives them in different places.
Legend:
U87MG tumor-bearing mice = experiment: PET/CT imaging of U87MG tumor-bearing mice; assay type: in vivo; details: 3 h after i.v. injection of ~10 MBq (~1 nmol), one or two mice
Method: The energy window was set to 150–650 keV. […] All static PET scans lasted for 20 min.

[1] = Biodistribution in U87MG tumor-bearing mice; assay type: in vivo; details: female, CD-1 nude (athymic nude), mouse, iv, total radioactivity, i.v. ~5 MBq (~1 nmol), mean ± SD; for tissue to tissue ratio at 0.5 h / tissue uptake at 0.5 h: 30 min p.i.; for tissue to tissue ratio at 2 h / tissue uptake at 2 h: 2 h p.i.; for tissue to tissue ratio at 5 h / tissue uptake at 5 h: 5 h p.i.
[2] = U87MG tumor / blood, n=3, read-out: Tumor-to-blood ratio
[3] = U87MG tumor / kidneys, n=3, read-out: Tumor-to-kidney ratio
[4] = U87MG tumor / liver, n=3, read-out: Tumor-to-liver ratio
[5] = U87MG tumor, n=3, read-out: Biodistribution, U87MG Tumor
[6] = blood, 5 MBq per mouse, n=3, read-out: Biodistribution, Blood
[7] = bone, 5 MBq per mouse, n=3, read-out: Biodistribution, Bone
[8] = brain, 5 MBq per mouse, n=3, read-out: Biodistribution, Brain
[9] = heart, 5 MBq per mouse, n=3, read-out: Biodistribution, Heart
[10] = intestines, 5 MBq per mouse, n=3, read-out: Biodistribution, Intestines
[11] = kidneys, n=3, read-out: Biodistribution, Kidneys
[12] = liver, n=3, read-out: Biodistribution, Liver
[13] = lung, 5 MBq per mouse, n=3, read-out: Biodistribution, Lung
[14] = muscle, 5 MBq per mouse, n=3, read-out: Biodistribution, Muscle
[15] = pancreas, 5 MBq per mouse, n=3, read-out: Biodistribution, pancreas
[16] = skin, 5 MBq per mouse, n=3, read-out: Biodistribution, Skin
[17] = spleen, 5 MBq per mouse, n=3, read-out: Biodistribution, Spleen
[18] = stomach, 5 MBq per mouse, n=3, read-out: Biodistribution, Stomach

N=C(N)NCCC[C@@H]1NC(=O)[C@H](CCCCNC(=O)CN2CCN(CC(=O)O)CCN(CC(=O)O)CCN(CC(=O)O)CC2)NC(=O)[C@@H](Cc2ccccc2)NC(=O)[C@H](CC(=O)O)NC(=O)CNC1=O [^44Sc-DOTA-RGD, metal not drawn]
PET/CT distribution of radioactivity (in words) (U87MG tumor-bearing mice): clearly less accumulation of radioactivity in the liver than ^68Ga-DOTA-RGD | tissue to tissue ratio at 0.5 h [1, 2]: 4.82 ± 1.6 | tissue to tissue ratio at 2 h [1, 2]: 40.1 ± 15.6 | tissue to tissue ratio at 5 h [1, 2]: 47.2 ± 18 | tissue to tissue ratio at 0.5 h [1, 3]: 1.16 ± 0.29 | tissue to tissue ratio at 2 h [1, 3]: 1.77 ± 0.13 | tissue to tissue ratio at 5 h [1, 3]: 1.82 ± 0.21 | tissue to tissue ratio at 0.5 h [1, 4]: 0.99 ± 0.14 | tissue to tissue ratio at 2 h [1, 4]: 0.61 ± 0.04 | tissue to tissue ratio at 5 h [1, 4]: 2.9 ± 0.38 | tissue uptake at 0.5 h [1, 5]: 4.88 ± 0.67 %ID/g | tissue uptake at 2 h [1, 5]: 2.99 ± 0.16 %ID/g | tissue uptake at 5 h [1, 5]: 3 ± 0.38 %ID/g | tissue uptake at 0.5 h [1, 6]: 1.1 ± 0.29 %ID/g | tissue uptake at 2 h [1, 6]: 0.08 ± 0.03 %ID/g | tissue uptake at 5 h [1, 6]: 0.07 ± 0.03 %ID/g | tissue uptake at 0.5 h [1, 7]: 1.17 ± 0.07 %ID/g | tissue uptake at 2 h [1, 7]: 0.56 ± 0.03 %ID/g | tissue uptake at 5 h [1, 7]: 0.52 ± 0.11 %ID/g | tissue uptake at 0.5 h [1, 8]: 0.12 ± 0.05 %ID/g | tissue uptake at 2 h [1, 8]: 0.06 ± 0.01 %ID/g | tissue uptake at 5 h [1, 8]: 0.06 ± 0.01 %ID/g | tissue uptake at 0.5 h [1, 9]: 0.96 ± 0.3 %ID/g | tissue uptake at 2 h [1, 9]: 0.31 ± 0.04 %ID/g | tissue uptake at 5 h [1, 9]: 0.3 ± 0.06 %ID/g | tissue uptake at 0.5 h [1, 10]: 1.88 ± 0.18 %ID/g | tissue uptake at 2 h [1, 10]: 1.01 ± 0.04 %ID/g | tissue uptake at 5 h [1, 10]: 1.07 ± 0.04 %ID/g | tissue uptake at 2 h ([1]; kidneys, 5 MBq per mouse, n=3, read-out: Biodistribution, Kidneys): 1.69 ± 0.09 %ID/g | tissue uptake at 0.5 h [1, 11]: 4.44 ± 0.51 %ID/g | tissue uptake at 5 h [1, 11]: < 2 %ID/g | tissue uptake at 0.5 h [1, 12]: 5.16 ± 0.99 %ID/g | tissue uptake at 2 h [1, 12]: 4.9 ± 0.13 %ID/g | tissue uptake at 5 h [1, 12]: ~1 %ID/g | tissue uptake at 0.5 h [1, 13]: 2.17 ± 0.7 %ID/g | tissue uptake at 2 h [1, 13]: 0.72 ± 0.11 %ID/g | tissue uptake at 5 h [1, 13]: 0.52 ± 0.04 %ID/g | tissue uptake at 0.5 h [1, 14]: 0.66 ± 0.26 %ID/g | tissue uptake at 5 h [1, 14]: 0.28 ± 0.04 %ID/g | tissue uptake at 2 h [1, 15]: 0.35 ± 0.03 %ID/g | tissue uptake at 5 h [1, 15]: 0.39 ± 0.02 %ID/g | tissue uptake at 0.5 h ([1]; pancreas, n=3, read-out: Biodistribution, pancreas): 0.94 ± 0.49 %ID/g | tissue uptake at 0.5 h [1, 16]: 2.28 ± 0.39 %ID/g | tissue uptake at 2 h [1, 16]: 1.23 ± 0.2 %ID/g | tissue uptake at 5 h [1, 16]: 0.97 ± 0.06 %ID/g | tissue uptake at 0.5 h [1, 17]: 3.66 ± 0.87 %ID/g | tissue uptake at 2 h [1, 17]: 2.82 ± 0.28 %ID/g | tissue uptake at 5 h [1, 17]: 1.06 ± 0.18 %ID/g | tissue uptake at 0.5 h [1, 18]: 1.78 ± 0.23 %ID/g | tissue uptake at 2 h [1, 18]: 0.84 ± 0.19 %ID/g | tissue uptake at 5 h [1, 18]: 0.72 ± 0.07 %ID/g
